T/C data for 13 compounds are collected here from PubChem BioAssay AID192 (DTP/NCI, 2004).

For the assay, the system named is BDF1 mice, B16 melanoma ip, median survival T/C. Description: NCI In Vivo Anticancer Drug Screen. Data for tumor model B16 Melanoma (intraperitoneal) in B6D2F1 (BDF1) mice. The following applies: endpoint: median survival time, higher = longer survival. The gist of the method: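 Survival or tumor size is measured after treatment of tumor-bearing mice and normalised to the vehicle-treated control group.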

Where [1] appears, read: dose: 100.0 mg/kg/injection, schedule: Q01DX009 (ip), vehicle: saline.
[2] abbreviates: dose: 200.0 mg/kg/injection, schedule: Q01DX009 (ip), vehicle: saline.
Setting [3] is: dose: 0.25 mg/kg/injection, schedule: Q01DX009 (ip), vehicle: other.
Setting [4] is: dose: 25.0 mg/kg/injection, schedule: Q01DX009 (ip), vehicle: Klucel (hydroxypropylcellulose) (HPC).
[5] abbreviates: dose: 100.0 mg/kg/injection, schedule: Q01DX009 (ip), vehicle: Klucel (hydroxypropylcellulose) (HPC).

“And” between values parts separate entries of the source, which are not always exact repeats. Identical values can stand only once. Toxic doses and inconclusive results are not listed.

Turning to `CC(=O)/C(N=O)=C(/C)O`, the T/C was 110 % of control (dose: 50.0 mg/kg/injection, schedule: Q01DX009 (ip), vehicle: saline); 105 % of control under setting [1]; 97 % of control under setting [2].

For the compound `Cc1noc(/N=C/c2ccccc2)c1C`, the T/C by setting is: (dose: 100.0 mg/kg/injection, schedule: Q04DX003 (ip), vehicle: Klucel (hydroxypropylcellulose) (HPC)) 108 % of control; (dose: 200.0 mg/kg/injection, schedule: Q04DX003 (ip), vehicle: Klucel (hydroxypropylcellulose) (HPC)) 105 % of control; (dose: 400.0 mg/kg/injection, schedule: Q04DX003 (ip), vehicle: Klucel (hydroxypropylcellulose) (HPC)) 108 % of control.

As to `COC(=O)[C@@]12OC[C@]34[C@H]([C@@H](O)[C@@H]1O)[C@@]1(C)CC(=O)C(O)=C(C)[C@@H]1C[C@H]3OC(=O)[C@H](OC(=O)/C=C(\C)C(C)C)[C@@H]24`, the T/C by setting is: (dose: 0.03 mg/kg/injection, schedule: Q01DX009 (ip), vehicle: saline + alcohol) 122 % of control; (dose: 0.12 mg/kg/injection, schedule: Q01DX009 (ip), vehicle: other) 169 % of control; (dose: 0.12 mg/kg/injection, schedule: Q01DX009 (ip), vehicle: saline + alcohol) 153 % of control; under setting [3], 155 % of control; (dose: 0.25 mg/kg/injection, schedule: Q01DX009 (ip), vehicle: saline + alcohol) 154 % of control; (dose: 0.5 mg/kg/injection, schedule: Q01DX009 (ip), vehicle: other) 160 % of control. Moreover, the T/C was 154 % of control and 157 % of control (dose: 0.5 mg/kg/injection, schedule: Q01DX009 (ip), vehicle: saline + alcohol); 164 % of control (dose: 1.0 mg/kg/injection, schedule: Q01DX009 (ip), vehicle: other); 158 % of control and 164 % of control (dose: 1.0 mg/kg/injection, schedule: Q01DX009 (ip), vehicle: saline + alcohol); 177 % of control (dose: 2.0 mg/kg/injection, schedule: Q01DX009 (ip), vehicle: saline + alcohol); 160 % of control (dose: 125.0 micrograms/kg/injection, schedule: Q01DX009 (ip), vehicle: saline + alcohol); 160 % of control (dose: 250.0 micrograms/kg/injection, schedule: Q01DX009 (ip), vehicle: saline + alcohol). Moreover, the T/C runs as follows: (dose: 500.0 micrograms/kg/injection, schedule: Q01DX009 (ip), vehicle: saline + alcohol) 168 % of control; (dose: 1000.0 micrograms/kg/injection, schedule: Q01DX009 (ip), vehicle: saline + alcohol) 164 % of control; (dose: 2000.0 micrograms/kg/injection, schedule: Q01DX009 (ip), vehicle: saline + alcohol) 97 % of control.

As to `CC(=O)c1ccccc1C`, the T/C runs as follows: (dose: 12.5 mg/kg/injection, schedule: Q01DX009 (ip), vehicle: saline with Tween-80) 102 % of control; (dose: 25.0 mg/kg/injection, schedule: Q01DX009 (ip), vehicle: saline with Tween-80) 108 % of control; (dose: 50.0 mg/kg/injection, schedule: Q01DX009 (ip), vehicle: saline with Tween-80) 92 % of control and 123 % of control.

For the compound `C=Cc1c2[n-]c(c1C)/C=c1\[n-]/c(c(C)c1C=C)=C\c1[n-]c(c(CCC(=O)O)c1C)/C=c1\[n-]/c(c(C)c1CCC(=O)O)=C\2.[Co]`, the T/C is 95 % of control under setting [4]; 94 % of control (dose: 50.0 mg/kg/injection, schedule: Q01DX009 (ip), vehicle: Klucel (hydroxypropylcellulose) (HPC)); 92 % of control under setting [5]; 87 % of control (dose: 200.0 mg/kg/injection, schedule: Q01DX009 (ip), vehicle: Klucel (hydroxypropylcellulose) (HPC)); 90 % of control (dose: 1:1.0 dilution, schedule: Q01DX009 (ip), vehicle: saline); 99 % of control (dose: 1:2.0 dilution, schedule: Q01DX009 (ip), vehicle: saline). Further, the T/C is 105 % of control (dose: 1:4.0 dilution, schedule: Q01DX009 (ip), vehicle: saline) and 112 % of control (dose: 1:8.0 dilution, schedule: Q01DX009 (ip), vehicle: saline).

With `CCC(CC)CC1CN2CCc3cc(OC)c(OC)cc3C2CC1(O)CC` (stereo not given), the T/C was 102 % of control (dose: 3.12 mg/kg/injection, schedule: Q01DX009 (ip), vehicle: Klucel (hydroxypropylcellulose) (HPC)); 102 % of control (dose: 6.25 mg/kg/injection, schedule: Q01DX009 (ip), vehicle: Klucel (hydroxypropylcellulose) (HPC)); 102 % of control (dose: 12.5 mg/kg/injection, schedule: Q01DX009 (ip), vehicle: Klucel (hydroxypropylcellulose) (HPC)); 106 % of control under setting [4].

For `COc1cccc2c1C(=O)c1c(O)c3c(c(O)c1C2=O)C[C@@](O)(/C(C)=N/NC(=O)c1ccccc1)C[C@@H]3OC1CC(N)C(O)C(C)O1` (stereo not given in full), the T/C is, setting by setting: (dose: 0.5 mg/kg/injection, schedule: Q01DX009 (ip), vehicle: water) 118 % of control; (dose: 0.75 mg/kg/injection, schedule: Q01DX009 (ip), vehicle: saline) 156 % of control; (dose: 1.5 mg/kg/injection, schedule: Q01DX009 (ip), vehicle: saline) 156 % of control and 167 % of control and 202 % of control; (dose: 2.0 mg/kg/injection, schedule: Q01DX001 (ip), vehicle: water) 158 % of control and 165 % of control; (dose: 2.0 mg/kg/injection, schedule: Q01DX009 (ip), vehicle: water) 181 % of control; (dose: 3.0 mg/kg/injection, schedule: Q01DX009 (ip), vehicle: saline) 186 % of control and 200 % of control and 226 % of control. Moreover, the T/C (dose: 3.0 mg/kg/injection, schedule: Q04DX003 (ip), vehicle: saline) was 165 % of control and 172 % of control; the T/C (dose: 4.0 mg/kg/injection, schedule: Q01DX001 (ip), vehicle: water) is 161 % of control and 162 % of control and 202 % of control; the T/C (dose: 4.0 mg/kg/injection, schedule: Q01DX009 (ip), vehicle: water) was 172 % of control; the T/C (dose: 6.0 mg/kg/injection, schedule: Q01DX009 (ip), vehicle: saline) is 191 % of control and 202 % of control and 272 % of control; the T/C (dose: 6.0 mg/kg/injection, schedule: Q04DX003 (ip), vehicle: saline) is 161 % of control and 193 % of control and 260 % of control; the T/C (dose: 8.0 mg/kg/injection, schedule: Q01DX001 (ip), vehicle: water) is 186 % of control and 211 % of control and 275 % of control. Moreover, the T/C was 245 % of control (dose: 8.0 mg/kg/injection, schedule: Q01DX009 (ip), vehicle: water); 155 % of control and 215 % of control and 260 % of control (dose: 12.0 mg/kg/injection, schedule: Q04DX003 (ip), vehicle: saline); 178 % of control and 282 % of control and 287 % of control (dose: 16.0 mg/kg/injection, schedule: Q01DX001 (ip), vehicle: water).

For `CC(=O)Oc1ccccc1O`, the T/C runs as follows: (dose: 25.0 mg/kg/injection, schedule: Q01DX009 (ip), vehicle: saline + Tween-80 + alcohol) 100 % of control; (dose: 50.0 mg/kg/injection, schedule: Q01DX009 (ip), vehicle: saline + Tween-80 + alcohol) 109 % of control; (dose: 100.0 mg/kg/injection, schedule: Q01DX009 (ip), vehicle: saline + Tween-80 + alcohol) 104 % of control.

Take `NC(=O)C(O)C(O)C(O)C(O)C(N)=O` (stereo not given): the T/C is, setting by setting: under setting [1], 106 % of control; under setting [2], 100 % of control.

As for `Cc1ccc(NC(=O)COc2ccc(Cl)cc2Cl)c([N+](=O)[O-])c1`, the T/C (dose: 25.0 mg/kg/injection, schedule: Q01DX009 (ip), vehicle: carboxymethylcellulose (CMC)) was 100 % of control; the T/C (dose: 50.0 mg/kg/injection, schedule: Q01DX009 (ip), vehicle: carboxymethylcellulose (CMC)) is 100 % of control; the T/C under setting [5] is 88 % of control; the T/C (dose: 100.0 mg/kg/injection, schedule: Q01DX009 (ip), vehicle: carboxymethylcellulose (CMC)) was 100 % of control.

Consider `Cn1c(N)c(N=O)c(=O)n(C)c1=O`, for which the T/C (dose: 90.0 mg/kg/injection, schedule: Q01DX009 (ip), vehicle: saline with Tween-80) was 100 % of control; the T/C (dose: 180.0 mg/kg/injection, schedule: Q01DX009 (ip), vehicle: saline with Tween-80) was 90 % of control; the T/C (dose: 360.0 mg/kg/injection, schedule: Q01DX009 (ip), vehicle: saline with Tween-80) is 100 % of control.

`COC1=C(N2CC2)C(=O)C(OC)=C(N2CC2)C1=O`: the T/C was 112 % of control and 118 % of control under setting [3]; 179 % of control (dose: 1.0 mg/kg/injection, schedule: Q01DX009 (ip), vehicle: saline with Tween-80); 169 % of control (dose: 2.0 mg/kg/injection, schedule: Q01DX009 (ip), vehicle: other).

Regarding `CCCC1CC[N-]CC1.CCCC1CC[N-]CC1.CCCC1CC[N-]CC1.CCCC1CC[N-]CC1.CS(C)=O.CS(C)=O.[Cl-].[Cl-].[Cl-].[Cl-].[Cl][Rh][Cl].[Rh+3]`, the T/C reads like this: (dose: 1.56 mg/kg/injection, schedule: Q01DX009 (ip), vehicle: water) 105 % of control; (dose: 3.13 mg/kg/injection, schedule: Q01DX009 (ip), vehicle: water) 107 % of control; (dose: 6.25 mg/kg/injection, schedule: Q01DX009 (ip), vehicle: water) 120 % of control; (dose: 25.0 mg/kg/injection, schedule: Q01DX009 (ip), vehicle: water) 124 % of control.
